Experiments:
human A2B receptors = molecular target: T1, human A2B receptors (Homo sapiens, UniProt P29275); assay: Functional human A2B receptor activity, recombinant HEK293 cells, cAMP (HTRF); type: cell-based; details: read-out: A2B (Category)
T1 construct: expressed in transfected cells; host or cells: HEK293
T1 sequence (P29275 1-332): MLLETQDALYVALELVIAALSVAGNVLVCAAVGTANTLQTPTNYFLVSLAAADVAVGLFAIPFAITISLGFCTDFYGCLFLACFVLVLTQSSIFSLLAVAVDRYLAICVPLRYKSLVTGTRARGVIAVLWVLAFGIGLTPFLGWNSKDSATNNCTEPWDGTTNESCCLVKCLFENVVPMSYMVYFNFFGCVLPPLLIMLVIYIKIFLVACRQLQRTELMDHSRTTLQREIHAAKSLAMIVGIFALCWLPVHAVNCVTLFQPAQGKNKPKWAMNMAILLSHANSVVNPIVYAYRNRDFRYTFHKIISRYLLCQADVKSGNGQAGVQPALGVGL
Procedure, shortened: (§1)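 cAMP accumulation, determined by HTRF after a 15 min incubation, served as the functional measure of receptor activity.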

human A2A receptors = molecular target: T2, human A2A receptors (Homo sapiens, UniProt P29274); assay: Functional human A2A receptor activity, recombinant HEK293 cells, cAMP (HTRF); type: cell-based; details: read-out: A2A (Category)
T2 construct: expressed in transfected cells; host or cells: HEK293
Procedure, shortened: as §1

T2 sequence (P29274 whole entry): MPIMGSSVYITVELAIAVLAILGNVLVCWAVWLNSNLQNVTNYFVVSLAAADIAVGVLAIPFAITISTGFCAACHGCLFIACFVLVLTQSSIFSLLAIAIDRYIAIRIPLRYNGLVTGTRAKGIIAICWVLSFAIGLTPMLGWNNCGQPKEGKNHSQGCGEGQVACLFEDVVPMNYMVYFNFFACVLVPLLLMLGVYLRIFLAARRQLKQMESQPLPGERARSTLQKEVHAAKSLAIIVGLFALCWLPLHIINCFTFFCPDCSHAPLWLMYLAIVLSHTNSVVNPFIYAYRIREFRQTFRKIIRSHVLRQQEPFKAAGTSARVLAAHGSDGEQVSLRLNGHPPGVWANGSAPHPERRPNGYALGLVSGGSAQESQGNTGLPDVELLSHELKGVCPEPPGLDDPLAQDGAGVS

Row | SMILES | IC50 (human A2B receptors) [µM] | IC50 (human A2A receptors) [µM]
1 | CC1(O)CCN(C(=O)c2cc3c(cn2)c(-c2coc4ccccc24)nn3CC(F)(F)F)CC1 [Compound 208, [3-Benzofuran-3-yl-1-(2,2,2-trifluoro-ethyl)-1H-pyrazolo[4,3-c]pyridin-6-yl]-(4-hydroxy-4-methyl-piperidin-1-yl)-methanone] | < 0.1 | < 0.1
2 | O=C(c1cc2c(cn1)c(-c1coc3ccccc13)nn2CC(F)(F)F)N1[C@@H]2CC[C@H]1C[C@@H](O)C2 [Compound 209, [3-Benzofuran-3-yl-1-(2,2,2-trifluoro-ethyl)-1H-pyrazolo[4,3-c]pyridin-6-yl]-(3-endo-hydroxy-8-aza-bicyclo[3.2.1]oct-8-yl)-methanone] | < 0.1 | < 0.1
3 | CCC1(O)C2CCC1CN(C(=O)c1cc3c(cn1)c(-c1coc4ccccc14)nn3CC(F)(F)F)C2 (stereo not drawn) [Compound 210, [3-Benzofuran-3-yl-1-(2,2,2-trifluoro-ethyl)-1H-pyrazolo[4,3-c]pyridin-6-yl]-(8-exo-ethyl-8-endo-hydroxy-3-aza-bicyclo[3.2.1]oct-3-yl)-methanone] | < 1 | < 0.1
4 | CC1(O)CC2CC1CN2C(=O)c1cc2c(cn1)c(-c1coc3ccccc13)nn2CC(F)(F)F (stereo not drawn) [Compound 211, [3-Benzofuran-3-yl-1-(2,2,2-trifluoro-ethyl)-1H-pyrazolo[4,3-c]pyridin-6-yl]-(5-endo-hydroxy-5-exo-methyl-2-aza-bicyclo[2.2.1]hept-2-yl)-methanone] | < 1 | < 0.1
5 | C[C@]1(O)[C@@H]2CC[C@H]1CN(C(=O)c1cc3c(cn1)c(-c1coc4ccccc14)nn3CC(F)(F)F)C2 [Compound 212, [3-Benzofuran-3-yl-1-(2,2,2-trifluoro-ethyl)-1H-pyrazolo[4,3-c]pyridin-6-yl]-(8-endo-hydroxy-8-exo-methyl-3-aza-bicyclo[3.2.1]oct-3-yl)-methanone] | < 1 | < 0.1
6 | C#CC1(O)C2CCC1CN(C(=O)c1cc3c(cn1)c(-c1coc4ccccc14)nn3CC(F)(F)F)C2 (centres unmarked) [Compound 214] | < 1 | < 0.1
7 | COCC1CCCN1C(=O)c1cc2c(cn1)c(-c1coc3ccccc13)nn2CC(F)(F)F (centres unmarked) [Compound 215, [3-Benzofuran-3-yl-1-(2,2,2-trifluoro-ethyl)-1H-pyrazolo[4,3-c]pyridin-6-yl]-(2-methoxymethyl-pyrrolidin-1-yl)-methanone] | < 1 | < 0.1
8 | O=C(c1cc2c(cn1)c(-c1coc3ccccc13)nn2CC(F)(F)F)N1CCC(F)CC1 [Compound 216, [3-Benzofuran-3-yl-1-(2,2,2-trifluoro-ethyl)-1H-pyrazolo[4,3-c]pyridin-6-yl]-(4-fluoro-piperidin-1-yl)-methanone] | < 1 | < 0.1
9 | O=C(c1cc2c(cn1)c(-c1coc3ccccc13)nn2CC(F)(F)F)N1CCOCC(F)(F)C1 [Compound 217] | < 0.1 | < 0.1
10 | O=C(c1cc2c(cn1)c(-c1coc3ccccc13)nn2CC(F)(F)F)N1CC2CCC(C1)C2O (stereo not drawn) [Compound 218, [3-Benzofuran-3-yl-1-(2,2,2-trifluoro-ethyl)-1H-pyrazolo[4,3-c]pyridin-6-yl]-(8-endo-hydroxy-3-aza-bicyclo[3.2.1]oct-3-yl)-methanone] | < 0.1 | < 0.1
11 | CC1(C)CC(O)CCN1C(=O)c1cc2c(cn1)c(-c1coc3ccccc13)nn2CC(F)(F)F (centres unmarked) [Compound 219, [3-Benzofuran-3-yl-1-(2,2,2-trifluoro-ethyl)-1H-pyrazolo[4,3-c]pyridin-6-yl]-(4-hydroxy-2,2-dimethyl-piperidin-1-yl)-methanone] | < 1 | < 0.1
12 | O=C(c1cc2c(cn1)c(-c1coc3ccccc13)nn2CC(F)F)N1C2CCC1CC(O)C2 (stereo not drawn) [Compound 220, [3-Benzofuran-3-yl-1-(2,2-difluoro-ethyl)-1H-pyrazolo[4,3-c]pyridin-6-yl]-(3-endo-hydroxy-8-exo-methyl-3-aza-bicyclo[3.2.1]oct-3-yl)-methanone] | < 1 | < 0.1
13 | O=C(c1cc2c(cn1)c(-c1coc3ccccc13)nn2CCF)N1[C@@H]2CC[C@H]1C[C@@H](O)C2 [Compound 221, [3-Benzofuran-3-yl-1-(2-fluoro-ethyl)-1H-pyrazolo[4,3-c]pyridin-6-yl]-(3-endo-hydroxy-8-aza-bicyclo[3.2.1]oct-8-yl)-methanone] | < 0.1 | < 0.1
14 | CCCn1nc(-c2coc3ccccc23)c2cnc(C(=O)N3[C@@H]4CC[C@H]3C[C@@H](O)C4)cc21 [Compound 222, (3-Benzofuran-3-yl-1-propyl-1H-pyrazolo[4,3-c]pyridin-6-yl)-(3-endo-hydroxy-8-aza-bicyclo[3.2.1]oct-8-yl)-methanone] | < 1 | < 0.1
15 | O=C(c1cc2c(cn1)c(-c1coc3ccccc13)nn2CC(F)(F)F)N1CCC(F)(F)CC1 [Compound 225, [3-(benzofuran-3-yl)-1-(2,2,2-trifluoroethyl)pyrazolo[4,3-c]pyridin-6-yl]-(4,4-difluoro-1-piperidyl)methanone] | < 1 | < 0.1
16 | O=C(c1cc2c(cn1)c(-c1coc3ccccc13)nn2CC(F)(F)F)N1CCCC(F)(F)C1 [Compound 226, [3-(benzofuran-3-yl)-1-(2,2,2-trifluoroethyl)pyrazolo[4,3-c]pyridin-6-yl]-(3,3-difluoro-1-piperidyl)methanone] | < 1 | < 0.1
17 | O=C(c1cc2c(cn1)c(-c1coc3ccccc13)nn2CC(F)(F)F)N1CCCC(O)C1 (centres unmarked) [Compound 227, [3-Benzofuran-3-yl-1-(2,2,2-trifluoro-ethyl)-1H-pyrazolo[4,3-c]pyridin-6-yl]-(3-hydroxy-piperidin-1-yl)-methanone] | < 0.1 | < 0.1
18 | O=C(c1cc2c(cn1)c(-c1coc3ccccc13)nn2CC(F)(F)F)N1CCCC(O)CC1 (centres unmarked) [Compound 228, [3-(benzofuran-3-yl)-1-(2,2,2-trifluoroethyl)pyrazolo[4,3-c]pyridin-6-yl]-(4-hydroxyazepan-1-yl)methanone] | < 0.1 | < 0.1
19 | [2H]C1([2H])COCCN(C(=O)c2cc3c(cn2)c(-c2coc4ccccc24)nn3CC(F)(F)F)C1 [Compound 229, [3-(benzofuran-3-yl)-1-(2,2,2-trifluoroethyl)pyrazolo[4,3-c]pyridin-6-yl]-(6,6-dideuterio-1,4-oxazepan-4-yl)methanone] | < 0.1 | < 0.1

The next lines start with the values.

Row | IC50 (human A2B receptors) [µM] | IC50 (human A2A receptors) [µM] | SMILES
20 | < 0.1 | < 0.1 | O=C(c1cc2c(cn1)c(-c1coc3ccccc13)nn2CC(F)(F)F)N1CCOCC(F)C1 (centres unmarked) [Compound 230, [3-(benzofuran-3-yl)-1-(2,2,2-trifluoroethyl)pyrazolo[4,3-c]pyridin-6-yl]-[6-fluoro-1,4-oxazepan-4-yl]methanone]
21 | < 1 | < 0.1 | O=C(c1cc2c(cn1)c(-c1coc3ccccc13)nn2CC(F)(F)F)N(C1CC1)C1CC1 [Compound 232, 3-(benzofuran-3-yl)-N,N-di(cyclopropyl)-1-(2,2,2-trifluoroethyl)-pyrazolo[4,3-c]pyridine-6-carboxamide]
22 | < 1 | < 0.1 | CC(C)N(C(=O)c1cc2c(cn1)c(-c1coc3ccccc13)nn2CC(F)(F)F)C(C)C [Compound 233, 3-(benzofuran-3-yl)-N,N-diisopropyl-1-(2,2,2-trifluoroethyl)pyrazolo[4,3-c]pyridine-6-carboxamide]
23 | < 1 | < 0.1 | CCN(C(=O)c1cc2c(cn1)c(-c1coc3ccccc13)nn2CC(F)(F)F)C(C)C [Compound 234, 3-(benzofuran-3-yl)-N-ethyl-N-isopropyl-1-(2,2,2-trifluoroethyl)-pyrazolo[4,3-c]pyridine-6-carboxamide]
24 | < 1 | < 0.1 | CCN(C(=O)c1cc2c(cn1)c(-c1coc3ccccc13)nn2CC(F)(F)F)C1CCCCC1 [Compound 235, 3-(benzofuran-3-yl)-N-cyclohexyl-N-ethyl-1-(2,2,2-trifluoroethyl)pyrazolo[4,3-c]pyridine-6-carboxamide]
25 | < 1 | < 0.1 | NC(=O)c1ccc2occ(-c3nn(CC(F)(F)F)c4cc(C(=O)N5CCCOCC5)ncc34)c2c1 [Compound 237, 3-[6-(1,4-oxazepane-4-carbonyl)-1-(2,2,2-trifluoroethyl)pyrazolo[4,3-c]pyridin-3-yl]benzofuran-5-carboxamide]
26 | < 1 | < 0.1 | O=C(c1cc2c(cn1)c(-c1c[nH]c3ccccc13)nn2CC(F)(F)F)N1CC2CCC(C1)O2 [Compound 243, [3-(1H-indol-3-yl)-1-(2,2,2-trifluoroethyl)pyrazolo[4,3-c]pyridin-6-yl]-(8-oxa-3-azabicyclo[3.2.1]octan-3-yl)methanone]
27 | < 1 | < 0.1 | Cc1cc(C(N)=O)cn2c(-c3nn(CC(F)(F)F)c4cc(C(=O)N5CCCCCC5)ncc34)cnc12 [Compound 244, 3-[6-(Azepane-1-carbonyl)-1-(2,2,2-trifluoro-ethyl)-1H-pyrazolo[4,3-c]pyridin-3-yl]-8-methyl-imidazo[1,2-a]pyridine-6-carboxylic acid amide]
28 | < 1 | < 0.1 | CCCn1nc(-c2cnc3ccc(C(N)=O)cn23)c2cnc(C(=O)N3CCCCCC3)cc21 [Compound 245, 3-[6-(Azepane-1-carbonyl)-1-propyl-1H-pyrazolo[4,3-c]pyridin-3-yl]-imidazo[1,2-a]pyridine-6-carboxylic acid amide]

— US20210380606A1, “5-AZAINDAZOLE DERIVATIVES AS ADENOSINE RECEPTOR ANTAGONISTS” (Merck Patent GmbH, priority 2018, published 2021)
